# Measurements: patent US6458847B1, “Method for screening for drugs useful in inhibition of polymerization of aβ and tau peptides” (University of Alabama at Birmingham Research Foundation, priority 1995, dated 2002)
# What was measured:
# [1] = target: T1, juvenile rat MTτ (Rattus norvegicus, UniProt P19332, DEL587-617); experiment: Fatty acid dependence of tau assembly, polymer length per field by electron microscopy; assay type: biochemical; details: for Polymer Mass (μm/field) / % maximum: 50 μM free fatty acid, 72 hours; for Polymer Mass (μm/field): juvenile rat MTτ, average ± S.E.M. (n = 12); for % maximum: relative to the maximal assembly achieved with arachidonic acid; for stimulation of tau assembly, qualitative examination of grids: 50 μM, below measured CMC values
# T1 construct: killed by decapitation at postnatal day 11 (juveniles); from tissue; host or cells: brain microtubules of P11 Sprague-Dawley rats
# Method: (§1) All free fatty acids were purchased in the cis conformation and at maximum available purity from Sigma Chemical Company free fatty acids were diluted into tau and amyloid samples from a 200× ethanolic stock, such that the final ethanol concentration in all samples and controls was 0.5%.
# Assembly was performed at 37° C. in siliconized microfuge tubes.
# (§2) For staining of amyloid filaments, 4% uranyl acetate was used and the H2O rinse was omitted. […] Because short filaments were sometimes difficult to distinguish from background debri in digitized images, high concentrations of DTT were routinely used in order to maximize the production of longer filaments.
# [2] = target: T2, Aβ1-40 (Homo sapiens, UniProt P05067); experiment: Amyloid peptide assembly, thioflavin T fluorescence spectroscopy; assay type: biochemical; details: for fatty acid concentration giving significant increases in polymer content: thioflavin T fluorescence, 24 hours
# T2 construct: Aβ1-40 (Amyloid β-protein, residues 1-40, Sigma); purchased Sigma
# Method: (§3) Aβ1-40 (Amyloid β-protein, residues 1-40, Sigma) was resuspended in Aβ assembly buffer (100 mM Tris pH 7.4, 150 mM NaCl) at a concentration of 0.5 mg/ml, and frozen in aliquots at −80° C. Thawed aliquots were diluted to […] in assembly buffer, and following a 2 hour pre-incubation, were centrifuged for 10 min at 14,000 rpm in an Eppendorf 5415C desktop centrifuge. The clarified solution was then supplemented with free fatty acids (final Aβ concentration ˜[…]), and incubated for 24 hours. Care was taken to perform all procedures at 4° C.
# Fluorescence spectroscopy was performed essentially as described (Castano et al., 1995). Aliquots were diluted 1/6 into 67 mM glycine pH 9, […] thioflavin T, vortexed, and placed in a quartz cuvette. Samples were read on a Perkin Elmer LS-50B luminescence spectrometer, excitation=435 nm, emission=485 nm, slit widths=5 nm. The integrated intensity was averaged from the initial ten, 10 sec sampling intervals. The signal was stable for at least several hours. The fluorescence of five samples lacking Aβ was averaged and subtracted as background from all readings.
# [3] = Critical micellar concentration by phase partitioning of phenylnaphthylamine; assay type: physicochemical; details: for CMC: free fatty acids diluted into assembly buffer
# Method: as §1, with “0.5%. Values for the critical micellar concentration (CMC) were obtained based on the phase partitioning of […] phenylnaphthylamine (Kovatchev et al., 1981) when free fatty acids were diluted into assembly buffer.” for “0.5%.”
# For most experiments, tau proteins were diluted to 2× the desired concentration in buffer A, then 1/2 in borate saline (0.1 M H3BO3, 25 mM Na2B4O7, 75 mM NaCl) supplemented with 20 mM dithiothreitol (DTT) and 2× the required concentration of free fatty acids (final pH ˜8.4). Assembly was performed at 37° C. in siliconized microfuge tubes. For evaluating the dependence of assembly on ionic strength, tau was diluted 1/10 into 111 mM Tris pH 7.2, 11 mM DTT, supplemented to give the indicated final concentrations of NaCl. At 250 mM NaCl, the measured CMC of arachidonic acid in the Tris buffering system was >2 mM.
# [4] = target: T2, Aβ1-40; experiment: Amyloid peptide assembly, electron microscopy; assay type: biochemical; details: 24 hour incubation with 40 mM oleic acid or 50 mM linoleic acid
# Method: as §3
# For staining of amyloid filaments, 4% uranyl acetate was used and the H2O rinse was omitted. […] For filament length measurements, random micrographs obtained at a nominal magnification of 15K were digitized and traced using either software from Universal Imaging Corporation or the public domain NIH Image program (for Macintosh; written by W. Rasband at the NIH and available from the Internet by anonymous ftp from zippy.nimh.nih.gov or on floppy disk from NTIS, 5285 Port Royal Rd., Springfield, Va. 22161, part number PB93-504868). […] Because short filaments were sometimes difficult to distinguish from background debri in digitized images, high concentrations of DTT were routinely used in order to maximize the production of longer filaments.
# [5] = target: T3, human recombinant tau (Homo sapiens, UniProt P10636); experiment: Arachidonic acid dependence of tau assembly, human recombinant tau; assay type: biochemical; details: 20-80 μM arachidonic acid, 66 hours; no spontaneous assembly
# T3 construct: the conditions defined herein are conducive to assembly of the full length tau protein; polyhistidine tag; host or cells: E. coli
# Source text: Sprague-Dawley rats were obtained from Charles River, Wilmington, Mass., and killed by decapitation at postnatal day 11 (juveniles) or at greater than six weeks of age (adults). Fresh porcine brains were obtained from Bryan Meat Packing, Westpoint Miss. Detailed protocols for the isolation of tau from whole brain or twice-cycled brain microtubules have been described above. Nonphosphorylated, recombinant human tau (htau40; Goedert et al., 1989) was the gift of Dr. Jeff Kuret, Northwestern University Medical School, Chicago, Ill. Recombinant tau was produced in E. coli as a fusion protein with a polyhistidine tag, and purified to near homogeneity by nickel-chelate and gel filtration chromatography (Carmel et al., 1994). Following purification tau isolates were dialyzed against buffer A (20 mM morpholinoethanesulfonic acid pH 6.8, 80 mM NaCl, 2 mM EGTA, 1 mM MgCl2, 0.1 mM EDTA) and stored at −80° C. Protein concentrations were determined using the method of Lowry (Lowry et al., 1951), after samples in Laemmli sample buffer (Laemmli, 1970) were precipitated with 10 volumes of 10% perchloric acid, 1% phosphotungstic acid. Bovine serum albumin was used as the standard. […] At 250 mM NaCl, the measured CMC of arachidonic acid in the Tris buffering system was >2 mM. […]
# [6] = tested on: tau; experiment: Arachidonic acid stimulated polymerization, all tau preparations examined; assay type: biochemical; details: tau concentrations of 2.5-5 μM
# Method: (§4) For most experiments, tau proteins were diluted to 2× the desired concentration in buffer A, then 1/2 in borate saline (0.1 M H3BO3, 25 mM Na2B4O7, 75 mM NaCl) supplemented with 20 mM dithiothreitol (DTT) and 2× the required concentration of free fatty acids (final pH ˜8.4). Assembly was performed at 37° C. in siliconized microfuge tubes. For evaluating the dependence of assembly on ionic strength, tau was diluted 1/10 into 111 mM Tris pH 7.2, 11 mM DTT, supplemented to give the indicated final concentrations of NaCl. At 250 mM NaCl, the measured CMC of arachidonic acid in the Tris buffering system was >2 mM. […] For staining of amyloid filaments, 4% uranyl acetate was used and the H2O rinse was omitted. […] For filament length measurements, random micrographs obtained at a nominal magnification of 15K were digitized and traced using either software from Universal Imaging Corporation or the public domain NIH Image program (for Macintosh; written by W. Rasband at the NIH and available from the Internet by anonymous ftp from zippy.nimh.nih.gov or on floppy disk from NTIS, 5285 Port Royal Rd., Springfield, Va. 22161, part number PB93-504868). […] Because short filaments were sometimes difficult to distinguish from background debri in digitized images, high concentrations of DTT were routinely used in order to maximize the production of longer filaments.
# [7] = tested on: tau purified from porcine whole brain; experiment: Arachidonic acid dependence of tau assembly, porcine whole brain tau; assay type: biochemical; details: 20-80 μM arachidonic acid, 66 hours; no spontaneous assembly
# Method: as §2, with “Assembly was performed at 37° C. in siliconized microfuge tubes. […] For” for “For”
# [8] = tested on: adult rat MTτ; experiment: Arachidonic acid dependence of tau assembly, adult rat MTτ; assay type: biochemical
# Method: as §4
# [9] = tested on: microtubule tau purified from P11 rat, adult rat; details: glutathione 1-10 mM
# Method: In general, tau stored at −80° C. in buffer A was thawed at 4° C., diluted into 100 mM Tris pH 7.2 containing DTT or b-mercaptoethanol (bME), and incubated at 37° C. 100 mM MES was used for experiments requiring buffering below pH 7. Final tau concentrations were in the range of 1-10 μM. […] Samples were deposited in 10 ml aliquots onto 400 mesh nickel grids coated with 0.4% formvar, rinsed with 5 drops H2O, and stained with 5 drops of 2% uranyl acetate, the last drop sitting 1 minutes prior to blotting. Grids were examined using a JEOL JEM-100CX transmission electron microscope operated at 80 kV. For filament length measurements, micrographs obtained at a nominal magnification of 15K (FIG. 6) or 10K (FIGS. 7 and 9) were digitized using a SIT68 camera (MTI), and lengths were determined using software from Universal Imaging Corporation. Only filaments contained completely within a field and measuring at least 50 nm were included in data sets. Fields selected at random were chosen at low illumination and without the aid of the 10× binoculars, so that Formvar integrity could be assessed without viewing the filaments present.
# T2 sequence (P05067 672-711 limits assumed): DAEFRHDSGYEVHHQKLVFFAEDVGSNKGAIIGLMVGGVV
# T1 sequence (P19332 with tags, fused parts or gaps isoform P19332-6 DEL209-239): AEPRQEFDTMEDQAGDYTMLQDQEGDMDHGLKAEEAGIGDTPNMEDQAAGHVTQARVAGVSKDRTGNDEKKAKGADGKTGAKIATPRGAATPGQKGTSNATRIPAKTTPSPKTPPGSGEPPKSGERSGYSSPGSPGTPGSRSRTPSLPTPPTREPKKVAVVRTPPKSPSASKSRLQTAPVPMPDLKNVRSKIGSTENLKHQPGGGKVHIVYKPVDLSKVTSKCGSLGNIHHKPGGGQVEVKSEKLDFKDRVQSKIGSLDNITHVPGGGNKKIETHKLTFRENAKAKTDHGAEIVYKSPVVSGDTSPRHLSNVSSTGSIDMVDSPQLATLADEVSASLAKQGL
# T3 sequence (P10636 1-441 isoform P10636-8): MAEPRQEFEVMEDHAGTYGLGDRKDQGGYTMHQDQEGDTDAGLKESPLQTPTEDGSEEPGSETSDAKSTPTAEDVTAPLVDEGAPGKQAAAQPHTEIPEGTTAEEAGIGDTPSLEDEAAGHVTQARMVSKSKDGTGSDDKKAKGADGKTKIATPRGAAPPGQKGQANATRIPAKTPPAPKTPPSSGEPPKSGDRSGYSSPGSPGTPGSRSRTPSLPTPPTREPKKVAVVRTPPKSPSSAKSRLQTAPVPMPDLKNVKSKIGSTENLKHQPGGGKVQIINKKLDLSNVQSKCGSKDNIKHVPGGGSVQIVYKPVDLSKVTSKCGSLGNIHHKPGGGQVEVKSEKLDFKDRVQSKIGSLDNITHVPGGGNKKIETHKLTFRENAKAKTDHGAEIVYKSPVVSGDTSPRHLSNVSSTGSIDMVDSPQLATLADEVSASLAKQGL
Polymer Mass (μm/field) [1],% maximum [1],CMC [3],Compound,other results
8.23 ± 1.36 μm/field,34%,,"CCCCCCCCC=CCCCCCCCCCC(=O)O [11-eicosenoic acid (20:1), 11-eicosenoic acid]",
14.74 ± 3.31 μm/field,60%,0.21 mM,"CCCCC/C=C\C/C=C\CCCCCCCC(=O)O [9,12-linoleic acid (18:2), 9,12-linoleic acid]",relative potency as inducer of amyloid assembly ([2]; at higher concentrations of free fatty acids (above 40 μM)): more potent inducer of amyloid assembly; fatty acid concentration giving significant increases in polymer content [2]: 40 µM; amyloid filament lengths by electron microscopy [4]: dramatic increase in filament lengths
24.51 ± 2.58 μm/field,100%,0.16 mM,"CCCCCC=CCC=CCC=CCC=CCCCC(=O)O [5,8,11,14-eicosatetraenoic acid (20:4), 5,8,11,14-eicosatetraenoic acid]","filament formation, human recombinant tau [5]: Filaments were observed; apparent threshold for stimulation of tau assembly ([1]; juvenile MTτ, longest timepoint tested): less than 10 μμM; CMC in the Tris buffering system ([3]; 250 mM NaCl, Tris buffering system): > 2 mM; lowest concentration inducing assembly [6]: 10 to 20 µM; filament formation, tau purified from porcine whole brain [7]: Filaments were observed; polymerization of adult rat MTτ ([8]; arachidonic acid 10-40 μM): stimulated the polymerization"
7.99 ± 1.55 μm/field,33%,,"CCCCCC=CCC=CCC=CCCCCCCC(=O)O [8,11,14-eicosatrienoic acid (20:3), 8,11,14-eicosatrienoic acid]",
,,,"O[C@H](CS)[C@H](O)CS (racemic) [DTT, dithiothreitol]","decrease in total polymer mass ([8]; assembly at 10 mM DTT compared with 0.01-1.0 mM DTT, adult tau, 50 μM arachidonic acid): > 50%"
23.69 ± 4.11 μm/field,97%,0.44 mM,"CCCCCC/C=C\CCCCCCCC(=O)O [9-palmitoleic acid (16:1), 9-palmitoleic acid]",
,,,CCCCC/C=C\C/C=C\C/C=C\C/C=C\CCCC(=O)OC [methyl ester of arachidonic acid],"stimulation of tau assembly, qualitative examination of grids [1]: did not appear to be stimulated"
3.60 ± 0.54 μm/field,15%,>1 mM,"CCCCCCCCCCCCCCCCCC(=O)O [stearic acid (18:0), stearic acid]",
7.37 ± 0.92 μm/field,30%,,"CCCCCCCCCCCCCCCC(=O)O [palmitic acid (16:0), palmitic acid]",
11.81 ± 1.51 μm/field,48%,,"CCC=CCC=CCC=CCC=CCC=CCCCC(=O)O [5,8,11,14,17-eicosapentaenoic acid]",
5.50 ± 0.76 μm/field,22%,>1 mM,"CCCCCCCCCCCCCC(=O)O [myristic acid (14:0), myristic acid]",
,,,N[C@@H](CCC(=O)N[C@@H](CS)C(=O)NCC(=O)O)C(=O)O [glutathione],assembly of microtubule tau (rat) [9]: promoted the assembly
,,,CCCCC/C=C\C/C=C\C/C=C\C/C=C\CCCC(=O)OCC [ethyl ester of arachidonic acid],"stimulation of tau assembly, qualitative examination of grids [1]: did not appear to be stimulated"
1.20 ± 0.32 μm/field,5%,,"CCCCCC=CCC=CCCCCCCCCCC(=O)O [11,14-eicosadienoic acid (20:2), 11,14-eicosadienoic acid]",

Compound,Polymer Mass (μm/field) [1],% maximum [1],CMC [3],other results
"CCCCCCCC/C=C\CCCCCCCC(=O)O [9-oleic acid (18:1), 9-oleic acid]",7.36 ± 1.77 μm/field,30%,0.59 mM,fatty acid concentration giving significant increases in polymer content [2]: 40 µM; amyloid filament lengths by electron microscopy [4]: dramatic increase in filament lengths
"CC/C=C\C/C=C\C/C=C\CCCCCCCC(=O)O [9,12,15-linolenic acid (18:3), 9,12,15-linolenic acid]",4.01 ± 0.72 μm/field,16%,,
